Laboratory results reported in ChEMBL document CHEMBL1153399, “Design, synthesis and SAR studies of tripeptide analogs with the scaffold 3-phenylpropane-1,2-diamine as aminopeptidase N/CD13 inhibitors” (Bioorg Med Chem, 2009).

Assays:
Aminopeptidase N = target: T1, Aminopeptidase N (Sus scrofa, UniProt P15145); test: Inhibition of pig kidney microsomal APN
T1 sequence (P15145 whole entry): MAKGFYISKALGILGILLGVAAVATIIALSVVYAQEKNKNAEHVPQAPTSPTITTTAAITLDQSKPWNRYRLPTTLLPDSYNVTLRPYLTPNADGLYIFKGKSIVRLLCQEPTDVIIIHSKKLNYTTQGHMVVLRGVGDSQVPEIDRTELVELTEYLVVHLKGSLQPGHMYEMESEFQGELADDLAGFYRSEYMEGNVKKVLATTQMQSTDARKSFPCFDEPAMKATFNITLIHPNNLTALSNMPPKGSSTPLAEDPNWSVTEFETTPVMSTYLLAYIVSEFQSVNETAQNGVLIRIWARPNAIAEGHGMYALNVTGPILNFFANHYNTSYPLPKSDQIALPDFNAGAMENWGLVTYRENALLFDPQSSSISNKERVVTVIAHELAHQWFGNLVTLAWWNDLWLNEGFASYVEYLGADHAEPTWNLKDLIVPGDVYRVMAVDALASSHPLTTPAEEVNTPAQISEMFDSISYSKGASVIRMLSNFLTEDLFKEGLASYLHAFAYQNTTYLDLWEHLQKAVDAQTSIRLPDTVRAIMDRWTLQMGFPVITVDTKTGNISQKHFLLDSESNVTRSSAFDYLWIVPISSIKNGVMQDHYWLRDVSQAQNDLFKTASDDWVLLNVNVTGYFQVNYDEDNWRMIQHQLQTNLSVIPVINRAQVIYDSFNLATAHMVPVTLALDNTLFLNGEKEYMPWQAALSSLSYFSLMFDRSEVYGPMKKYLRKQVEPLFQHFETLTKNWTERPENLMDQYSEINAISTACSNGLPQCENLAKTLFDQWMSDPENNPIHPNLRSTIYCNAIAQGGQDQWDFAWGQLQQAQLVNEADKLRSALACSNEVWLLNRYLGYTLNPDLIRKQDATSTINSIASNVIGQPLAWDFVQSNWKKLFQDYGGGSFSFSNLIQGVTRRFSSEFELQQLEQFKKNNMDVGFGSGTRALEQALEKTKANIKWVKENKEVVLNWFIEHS

HL-60 = test: Cytotoxicity against human HL60 cells after 48 hrs by MTT assay; assay type: functional, cell-based; details: HL-60, 48 h

SMILES | IC50 (Aminopeptidase N) | IC50 (HL-60)
CC(C)C[C@H](NC(=O)N[C@@H](Cc1ccccc1)C(=O)NC[C@H](N)Cc1ccccc1)C(=O)O | 181 µM | –
N[C@@H](CNC(=O)[C@H](Cc1ccccc1)NC(=O)CCCCl)Cc1ccccc1 | 693 µM | –
CSCC[C@H](NC(=O)N[C@@H](CS)C(=O)NC[C@H](N)Cc1ccccc1)C(=O)O | 16.5 µM | 1.18 mM
N[C@@H](CNC(=O)[C@H](Cc1ccccc1)NC(=O)c1ccc([N+](=O)[O-])cc1)Cc1ccccc1 | 1390 µM | –
NCCCC[C@H](NC(=O)N[C@@H](Cc1ccccc1)C(=O)NC[C@H](N)Cc1ccccc1)C(=O)O | 89.5 µM | 1.49 mM
CSCC[C@H](NC(=O)N[C@@H](Cc1ccccc1)C(=O)NC[C@H](N)Cc1ccccc1)C(=O)O | 8.8 µM | 0.27 mM
NCCC[C@H](NC(=O)N[C@@H](CS)C(=O)NC[C@H](N)Cc1ccccc1)C(=O)O | 33.2 µM | –
N[C@@H](CNC(=O)[C@H](CS)NC(=O)N[C@@H](Cc1ccccc1)C(=O)O)Cc1ccccc1 | 9.8 µM | 1.06 mM
N[C@@H](CNC(=O)[C@H](CS)NC(=O)NCC(=O)O)Cc1ccccc1 | 174 µM | –
NCCCCCC(=O)N[C@@H](CS)C(=O)NC[C@H](N)Cc1ccccc1 | 202 µM | –
CC(C)[C@H](NC(=O)N[C@@H](Cc1ccccc1)C(=O)NC[C@H](N)Cc1ccccc1)C(=O)O | 58.5 µM | –
N[C@@H](CNC(=O)[C@H](Cc1ccccc1)NC(=O)c1cc([N+](=O)[O-])cc([N+](=O)[O-])c1)Cc1ccccc1 | 277 µM | –
N[C@@H](CNC(=O)[C@H](Cc1ccccc1)NC(=O)c1ccc(Cl)cc1Cl)Cc1ccccc1 | 2260 µM | –
COc1ccc(C(=O)N[C@@H](Cc2ccccc2)C(=O)NC[C@H](N)Cc2ccccc2)cc1 | 174 µM | –
CC(C)C[C@H](NC(=O)N[C@@H](Cc1ccc(O)cc1)C(=O)O)C(=O)NC[C@H](N)Cc1ccccc1 | 107 µM | –
N[C@@H](CNC(=O)[C@H](Cc1ccccc1)NC(=O)N[C@H](CS)C(=O)O)Cc1ccccc1 | 49.2 µM | –

SMILES | IC50 (Aminopeptidase N) | IC50 (HL-60)
CC(C)C[C@H](NC(=O)NCC(=O)O)C(=O)NC[C@H](N)Cc1ccccc1 | 3240 µM | –
N[C@@H](CNC(=O)[C@H](CS)NC(=O)c1ccc(Cl)cc1Cl)Cc1ccccc1 | 1050 µM | –
CC[C@H](C)[C@H](NC(=O)N[C@@H](CC(C)C)C(=O)NC[C@H](N)Cc1ccccc1)C(=O)O | 148 µM | –
CC(C)C[C@H](NC(=O)N[C@@H](C)C(=O)O)C(=O)NC[C@H](N)Cc1ccccc1 | 522 µM | –
CC(C)C[C@H](NC(=O)CCCCCN)C(=O)NC[C@H](N)Cc1ccccc1 | 1460 µM | –
NCCCCCC(=O)N[C@@H](Cc1ccccc1)C(=O)NC[C@H](N)Cc1ccccc1 | 1540 µM | –
NCCCC[C@H](NC(=O)N[C@@H](CS)C(=O)NC[C@H](N)Cc1ccccc1)C(=O)O | 8.6 µM | 0.29 mM
CC(C)C[C@H](NC(=O)N[C@@H](CS)C(=O)NC[C@H](N)Cc1ccccc1)C(=O)O | 45 µM | 2.66 mM
N[C@@H](CNC(=O)[C@H](CS)NC(=O)N[C@H](CS)C(=O)O)Cc1ccccc1 | 10.3 µM | 0.54 mM
N[C@@H](CNC(=O)[C@H](Cc1ccccc1)NC(=O)CCc1ccccc1)Cc1ccccc1 | 366 µM | –
CC[C@H](C)[C@H](NC(=O)N[C@@H](Cc1ccccc1)C(=O)NC[C@H](N)Cc1ccccc1)C(=O)O | 158 µM | –
CC[C@H](C)[C@H](NC(=O)N[C@@H](CS)C(=O)NC[C@H](N)Cc1ccccc1)C(=O)O | 14.8 µM | –
CC(C)C[C@H](NC(=O)N[C@@H](CC(C)C)C(=O)NC[C@H](N)Cc1ccccc1)C(=O)O | 142 µM | –
CSCC[C@H](NC(=O)N[C@@H](CC(C)C)C(=O)NC[C@H](N)Cc1ccccc1)C(=O)O | 30.4 µM | –
CC(C)[C@H](NC(=O)N[C@@H](CS)C(=O)NC[C@H](N)Cc1ccccc1)C(=O)O | 58.8 µM | –
